Data taken from PMC7594079, “Insights into the Function and Evolution of Taste 1 Receptor Gene Family in the Carnivore Fish Gilthead Seabream (Sparus aurata)” (International Journal of Molecular Sciences, 2020).

Columns and labels:
[1] = molecular target: T1, saT1R2a/R3 (Sparus aurata, UniProt A0A671TK95+A0A671VZB3); assay: saT1R2a/R3 heterodimer transiently transfected in stable pGL3-NFAT-luc-HEK293 (Cl.3) cells, luciferase reporter; assay type: cell-based; conditions: for T1R2a/R3 [MSD] maximum stimulation dose: as molarity, decimal comma
T1 sequence (A0A671TK95 20-825): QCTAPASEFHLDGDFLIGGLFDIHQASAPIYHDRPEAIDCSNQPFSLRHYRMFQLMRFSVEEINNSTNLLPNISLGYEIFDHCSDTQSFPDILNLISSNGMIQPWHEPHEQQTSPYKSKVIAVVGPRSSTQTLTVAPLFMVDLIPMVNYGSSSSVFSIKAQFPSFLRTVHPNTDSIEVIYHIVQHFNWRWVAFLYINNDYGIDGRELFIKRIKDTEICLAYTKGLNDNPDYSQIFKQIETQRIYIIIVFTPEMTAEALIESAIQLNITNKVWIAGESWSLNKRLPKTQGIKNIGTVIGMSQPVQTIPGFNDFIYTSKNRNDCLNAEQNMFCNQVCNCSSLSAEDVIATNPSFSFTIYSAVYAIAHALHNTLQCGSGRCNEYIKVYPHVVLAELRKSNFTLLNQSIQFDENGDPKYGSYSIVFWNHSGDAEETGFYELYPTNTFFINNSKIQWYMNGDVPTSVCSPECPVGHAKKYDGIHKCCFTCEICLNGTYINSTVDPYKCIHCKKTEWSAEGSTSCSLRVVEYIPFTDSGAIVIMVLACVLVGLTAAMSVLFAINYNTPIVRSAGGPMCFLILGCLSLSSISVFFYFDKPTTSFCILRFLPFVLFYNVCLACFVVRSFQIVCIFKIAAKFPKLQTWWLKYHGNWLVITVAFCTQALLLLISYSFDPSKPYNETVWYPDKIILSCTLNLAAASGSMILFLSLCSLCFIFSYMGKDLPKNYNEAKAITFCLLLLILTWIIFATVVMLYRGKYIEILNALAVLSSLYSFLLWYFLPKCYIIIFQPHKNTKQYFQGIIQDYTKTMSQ
T1 sequence (A0A671VZB3 24-860): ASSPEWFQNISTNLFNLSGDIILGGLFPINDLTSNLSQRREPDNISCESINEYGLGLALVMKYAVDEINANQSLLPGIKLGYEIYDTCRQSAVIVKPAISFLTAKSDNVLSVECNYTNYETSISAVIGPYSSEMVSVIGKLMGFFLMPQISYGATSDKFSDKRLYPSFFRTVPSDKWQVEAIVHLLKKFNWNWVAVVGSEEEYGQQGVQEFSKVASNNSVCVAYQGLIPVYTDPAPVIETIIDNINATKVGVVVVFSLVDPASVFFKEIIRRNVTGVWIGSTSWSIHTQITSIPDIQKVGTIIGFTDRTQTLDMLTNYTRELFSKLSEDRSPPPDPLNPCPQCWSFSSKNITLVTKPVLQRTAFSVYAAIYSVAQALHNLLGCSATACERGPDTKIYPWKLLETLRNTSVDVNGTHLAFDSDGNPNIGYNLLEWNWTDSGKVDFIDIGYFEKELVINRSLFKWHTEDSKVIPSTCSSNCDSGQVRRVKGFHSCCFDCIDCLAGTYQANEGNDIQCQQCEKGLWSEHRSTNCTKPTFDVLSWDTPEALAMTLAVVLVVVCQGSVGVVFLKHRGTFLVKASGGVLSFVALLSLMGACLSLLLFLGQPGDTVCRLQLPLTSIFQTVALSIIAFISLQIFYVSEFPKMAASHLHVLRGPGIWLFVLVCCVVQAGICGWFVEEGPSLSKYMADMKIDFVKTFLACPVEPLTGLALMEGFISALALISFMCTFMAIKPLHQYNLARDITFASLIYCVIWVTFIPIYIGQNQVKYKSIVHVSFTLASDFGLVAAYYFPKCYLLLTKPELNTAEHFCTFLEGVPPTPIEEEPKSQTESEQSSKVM
Text: Figure 6 Amino acid Log-dose response curves of activation in heterologous co-transfected (Cl.3) cells with saT1R1/3 (green dots), saT1R2a/3 (red squares) and saT1R2b/3 (black triangles) heterodimers. Evaluation of L-AA responses was based on the RLU mean ± SEM of four independent determinations normalized to the mean response of the same transfections stimulated with reduced assay medium (Basal Medium Eagle w/o L-glutamate (BME) + 1% FBS), and expressed as the percentage relative to basal levels (BL).
HEK293 cells were cultured in standard medium DMEM (Gibco, Thermo Fisher, Saint Louis, MO, USA) containing 10% FBS, penicillin (100 U/mL) and streptomycin ([…]) at 37 °C, with a humidified atmosphere at 5% CO2. pGL3-NFAT-luc-HEK293 stable clones were generated by co-transfections of pGL3-NFAT-luc and tgCMV/HyTK plasmids (50:1), the latter harboring the hygromycin phosphotransferase gene, using Lipofectamine LTX according to supplier’s protocols (Thermo Fisher, Saint Louis, MO, USA). Initially, HEK293 cells were selected using DMEM containing 400 μg/mL hygromycin B (Sigma, Darmstadt, Germany) in 24-well plates for two weeks; 24 colonies were further grown out in 96-well plates under reduced hygromycin selection (200 µg/mL) for three weeks. Potentially resistant NFAT-luc-HEK293 clones (n = 22) were validated after incubation in assay medium (DMEM + 1% FBS) containing PMA or Ionomycin (Sigma, Darmstadt, Germany) for 18 h (triplicates, 50,000 cells/well). Luciferase activity was quantified with ONE-Glo™ EX Reagent Kit (Promega, Madison, WI, USA) using a 96-microplate TECAN reader (Trading AG, Switzerland).
(§1) saT1Rs (saT1R1, saT1R2a, saT1R2b saT1R3) and saGαi1-2 genes were RT-PCR amplified using 5’ and 3’ flanking primers carrying HindIII and XhoI restriction sites, respectively. Gel-purified fragments were cloned into pGEM-T Easy vectors, re-sequenced, digested and subcloned into pcDNA™3 (Invitrogen, Carlsbad, CA, USA). Effective saT1R cloning into pcDNA™3 was further verified by HindIII/XhoI digestion. Transient co-transfections were done in 6-well plates (confluence ~70–80%) using 100 μL of reduced serum medium (Opti-MEM, Gibco, Thermo Fisher, Saint Louis, MO, USA) containing 150 ng of each selected pcDNA™3 construct, 1:10 charge ratio of Enhanced Green Fluorescent expressing construct (EGFP; positive control), and pBluescript II SK (+) vector DNA (Addgene, Watertown, MA, USA) up to 1 µg of totally transfected DNA. Following 24 h incubation, cells were washed with fresh standard medium and plated in polylysine treated plates for additional 24 h. Cells were then stimulated with L-AAs and sugar compounds for 18 h in a reduced assay medium (BME w/o L-glutamate; Gibco, Thermo Fisher, Saint Louis, MO, USA) + 1% FBS), to prevent unspecific Ca^2+/NFAT signaling activation and potential saT1R desensitization. All L-AAs and sugars used for in vitro experiments were obtained from Merck KGaA (Darmstadt, Germany).

[2] = tested on: saT1R1/R3, saT1R2a/R3 and saT1R2b/R3; assay: Screen of 20 L-AAs for dose-response activation of the three saT1R heterodimers in Cl.3 cells; assay type: cell-based, Sparus aurata; conditions: up to eight concentrations, 10 nM to 100 mM
Experimental: as §1

concentration with significant activation ([1]; saT1R2a/R3, tested 1–500 mM) [mM]	SMILES	T1R2a/R3 [MSD] maximum stimulation dose [1]	dose-response activation for at least one of the three saT1R heterodimers [2]
–	N[C@@H](CO)C(=O)O [Ser, Serine]	1,00 × 10^-1 M	generated a dose-response activation
–	NC(=O)CC[C@H](N)C(=O)O [Gln, Glutamine]	1,00 × 10^-1 M	generated a dose-response activation
–	N[C@@H](Cc1ccc(O)cc1)C(=O)O [Tyr, Tyrosine]	1,00 × 10^-3 M	did not respond in a dose-response manner
–	N[C@@H](Cc1c[nH]cn1)C(=O)O [His, Histidine]	1,00 × 10^-5 M	did not respond in a dose-response manner
–	N=C(N)NCCC[C@H](N)C(=O)O [Arg, Arginine]	1,00 × 10^-5 M	did not respond in a dose-response manner
–	CSCC[C@H](N)C(=O)O [Met, Methionine]	1,00 × 10^-1 M	generated a dose-response activation
–	N[C@@H](Cc1c[nH]c2ccccc12)C(=O)O [Trp, Tryptophan]	1,00 × 10^-3 M	did not respond in a dose-response manner
–	N[C@@H](CC(=O)O)C(=O)O [Asp, Aspartic acid]	1,00 × 10^-5 M	did not respond in a dose-response manner
–	CC(C)C[C@H](N)C(=O)O [Leu, Leucine]	1,00 × 10^-1 M	generated a dose-response activation
200	OC[C@H]1OC(O)[C@H](O)[C@@H](O)[C@@H]1O (stereo partly drawn) [D-Glucose]	–	–
–	NC(=O)C[C@H](N)C(=O)O [Asn, Asparagine]	1,00 × 10^-1 M	did not respond in a dose-response manner
–	N[C@@H](CS)C(=O)O [Cys, Cysteine]	1,00 × 10^-4 M	did not respond in a dose-response manner
–	N[C@@H](CCC(=O)O)C(=O)O [Glu, Glutamic acid]	1,00 × 10^-2 M	generated a dose-response activation
–	O=C(O)[C@@H]1CCCN1 [Pro, Proline]	1,00 × 10^-1 M	generated a dose-response activation
–	C[C@@H](O)[C@H](N)C(=O)O [Thr, Threonine]	1,00 × 10^-1 M	generated a dose-response activation
–	N[C@@H](Cc1ccccc1)C(=O)O [Phe, Phenylalanine]	1,00 × 10^-2 M	did not respond in a dose-response manner
–	NCC(=O)O [Gly, Glycine]	1,00 × 10^-1 M	generated a dose-response activation
–	CC[C@H](C)[C@H](N)C(=O)O [Ile, Isoleucine]	1,00 × 10^-1 M	generated a dose-response activation
–	CC(C)[C@H](N)C(=O)O [Val, Valine]	1,00 × 10^-1 M	generated a dose-response activation
–	NCCCC[C@H](N)C(=O)O [Lys, Lysine]	1,00 × 10^-3 M	did not respond in a dose-response manner
–	C[C@H](N)C(=O)O [Ala, Alanine]	1,00 × 10^-1 M	generated a dose-response activation
